In ChEMBL document CHEMBL1201862, “PubChem BioAssay data set” (2004):
Active and inactive are the calls of the source.

What was measured:
Estrogen receptor beta [1] = target: T1, Estrogen receptor beta (Homo sapiens, UniProt Q92731);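 note: recombinant ER-beta bound to coactivator SRC1 peptide in presence of estradiol agonist; inhibitors block coactivator peptide binding and lower the FRET signal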
[2] = target: Ubiquitin carboxyl-terminal hydrolase BAP1 (Homo sapiens, UniProt Q92560); test: inhibition of BAP1 ubiquitin hydrolase activity – biochemical, dose response (AID 714); format: functional
Ubiquitin carboxyl-terminal hydrolase BAP1, sequence (Q92560 whole entry): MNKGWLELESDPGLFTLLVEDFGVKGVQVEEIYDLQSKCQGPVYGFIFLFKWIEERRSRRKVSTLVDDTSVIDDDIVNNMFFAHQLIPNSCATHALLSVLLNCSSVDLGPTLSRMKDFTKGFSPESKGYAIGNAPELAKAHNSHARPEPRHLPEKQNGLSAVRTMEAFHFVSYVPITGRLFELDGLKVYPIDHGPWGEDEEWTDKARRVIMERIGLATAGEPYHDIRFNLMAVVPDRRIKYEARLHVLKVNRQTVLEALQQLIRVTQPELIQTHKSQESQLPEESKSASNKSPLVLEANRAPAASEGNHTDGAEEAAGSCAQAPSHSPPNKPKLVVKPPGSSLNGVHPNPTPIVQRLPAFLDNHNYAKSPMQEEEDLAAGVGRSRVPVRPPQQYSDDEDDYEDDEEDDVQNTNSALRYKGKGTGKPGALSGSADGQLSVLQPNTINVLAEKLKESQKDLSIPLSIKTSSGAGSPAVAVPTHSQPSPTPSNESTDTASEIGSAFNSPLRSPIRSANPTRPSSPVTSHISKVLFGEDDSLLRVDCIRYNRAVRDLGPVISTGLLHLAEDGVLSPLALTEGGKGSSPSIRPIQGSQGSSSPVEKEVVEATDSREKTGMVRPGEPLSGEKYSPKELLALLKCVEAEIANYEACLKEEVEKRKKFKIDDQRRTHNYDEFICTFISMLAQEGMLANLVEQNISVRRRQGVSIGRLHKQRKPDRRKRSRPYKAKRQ

Protein Tat = Protein Tat (Human immunodeficiency virus type 1 group M subtype B (isolate HXB2)(HIV-1), UniProt P04608); format: functional;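 note: tat binding to TAR RNA read out by fluorescence polarization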
Protein Tat, sequence (P04608 whole entry): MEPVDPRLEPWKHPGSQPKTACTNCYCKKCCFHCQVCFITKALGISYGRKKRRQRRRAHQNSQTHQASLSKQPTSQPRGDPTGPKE

Estrogen receptor beta [3] = target: T1, Estrogen receptor beta; test: blockers of SRC-3 recruitment to ERβ – biochemical, ELISA, streptavidin-HRP readout, orthogonal assay, confirmation (AID 1060)
[4] = target: Luciferin 4-monooxygenase (Photinus pyralis, UniProt P08659); test: inhibition of purified Photinus pyralis luciferase – biochemical, luminescence, dose response (AID 1891)
Luciferin 4-monooxygenase, sequence (P08659 whole entry): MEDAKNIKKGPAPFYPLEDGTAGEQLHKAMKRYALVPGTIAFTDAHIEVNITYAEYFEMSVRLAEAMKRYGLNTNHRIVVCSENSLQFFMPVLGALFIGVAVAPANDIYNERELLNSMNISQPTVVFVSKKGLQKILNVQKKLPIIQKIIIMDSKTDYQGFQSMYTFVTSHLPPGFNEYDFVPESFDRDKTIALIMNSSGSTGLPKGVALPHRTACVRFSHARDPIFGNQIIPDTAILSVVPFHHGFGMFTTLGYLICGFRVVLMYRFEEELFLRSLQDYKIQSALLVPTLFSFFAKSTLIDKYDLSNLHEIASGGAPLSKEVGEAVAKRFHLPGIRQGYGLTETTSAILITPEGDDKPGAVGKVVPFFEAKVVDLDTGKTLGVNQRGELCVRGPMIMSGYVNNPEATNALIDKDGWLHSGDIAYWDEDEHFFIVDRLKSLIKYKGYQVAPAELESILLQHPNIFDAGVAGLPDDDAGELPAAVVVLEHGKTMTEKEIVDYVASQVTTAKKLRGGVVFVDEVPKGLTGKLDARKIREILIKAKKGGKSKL

[5] = Fluorescence Cell-Based Dose Response to Identify Inhibitors of Thrombin Receptor-Activating Peptide SFLLRN-Mediated P-Selectin Induction on Platelets. [Related pubchem assays: 1663 (Primary HTS), 1889 (retest at dose ), 1891 (counterscreen), 1678 (Project Summary)]; format: functional
[6] = Luminescence Cell-Based Dose Confirmation HTS to Identify Inhibitors of Platelet Dense Granule Release. [Related pubchem assays: 1663 (Primary HTS), 1678 (Summary of Project)]; format: functional
Heat shock protein HSP90 = Heat shock protein HSP90 (Homo sapiens, UniProt P07900+P08238); test: Hsp90 blockade concentration-response – dose response (AID 712); format: functional
Cytochrome P450 3A4 = Cytochrome P450 3A4 (Homo sapiens, UniProt P08684);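 note: CYP3A4 tested as one member of a cytochrome P450 panel screen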
Cytochrome P450 3A4, sequence (P08684 whole entry): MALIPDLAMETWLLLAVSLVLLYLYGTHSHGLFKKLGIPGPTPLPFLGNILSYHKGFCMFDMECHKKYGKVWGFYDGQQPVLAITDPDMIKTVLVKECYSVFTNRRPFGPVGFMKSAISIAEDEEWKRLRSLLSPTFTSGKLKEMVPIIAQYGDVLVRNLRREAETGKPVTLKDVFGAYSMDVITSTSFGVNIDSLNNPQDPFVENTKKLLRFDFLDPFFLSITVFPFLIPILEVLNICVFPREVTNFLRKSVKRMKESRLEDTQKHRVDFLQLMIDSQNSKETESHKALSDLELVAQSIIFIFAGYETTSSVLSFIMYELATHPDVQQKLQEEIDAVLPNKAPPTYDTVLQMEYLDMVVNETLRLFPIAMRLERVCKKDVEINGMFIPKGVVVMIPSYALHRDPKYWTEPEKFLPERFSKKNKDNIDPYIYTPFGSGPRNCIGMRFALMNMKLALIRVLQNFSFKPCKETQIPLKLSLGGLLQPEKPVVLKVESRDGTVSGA

[7] = P. falciparum Dd2 growth inhibitors, dose response, SYBR Green, cherry-picked samples (AID 1159567); format: functional, cell-based
[8] = toxicity to human hepatoma HepG2 cells – cell-based, cherry-picked samples, cytotoxicity control, dose response (AID 1159577); format: functional
[9] = Dd2 parasite growth inhibition in erythrocytes – SYBR Green, dry powder samples, set 9, dose response (AID 1159568); format: functional, cell-based
[10] = Dd2 parasite growth inhibition in erythrocytes – SYBR Green, dry powder samples, set 4, dose response (AID 1159572); format: functional, cell-based
[11] = growth inhibition of yeast DHODH-expressing 3D7 parasites – SYBR Green, dry powder samples, dose response (AID 1159570); format: functional, cell-based;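 note: parasite growth measured after 72 hours of compound exposure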
[12] = antimalarial activity against Dd2 parasites – SYBR Green fluorescence, erythrocytes, dry powder, set 2, dose response (AID 1159574); format: functional, cell-based
[13] = growth inhibition of PfATP4-mutant resistant parasites – NITD609-resistant line, SYBR Green, dry powder, dose response (AID 1159571); format: functional, cell-based;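 note: parasites synchronized at ring stage by sorbitol before testing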
[14] = Dd2 malaria parasite growth inhibition potency – SYBR Green, dry powder samples, dose response (AID 1159566); format: functional, cell-based;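 note: potency for growth inhibition with lower SYBR green DNA signal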
[15] = toxicity to human HepG2 hepatoma cells – cell-based, plate reader, dry powder samples, cytotoxicity control, dose response (AID 1159569); format: functional;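 note: inhibitor potency with signal falling toward the positive control level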
[16] = glucagon-like peptide-1 release potency in STC-1, concentration-response, half-maximal inhibitory concentration in the STC-1 line (AID 1117345); format: functional, cell-based
[17] = Potency on glucagon-like peptide 1 release, dose-response in NCI-H716 cell line, half maximal inhibitory concentration (AID 1117344); format: functional, cell-based

T1 sequence (Q92731 whole entry): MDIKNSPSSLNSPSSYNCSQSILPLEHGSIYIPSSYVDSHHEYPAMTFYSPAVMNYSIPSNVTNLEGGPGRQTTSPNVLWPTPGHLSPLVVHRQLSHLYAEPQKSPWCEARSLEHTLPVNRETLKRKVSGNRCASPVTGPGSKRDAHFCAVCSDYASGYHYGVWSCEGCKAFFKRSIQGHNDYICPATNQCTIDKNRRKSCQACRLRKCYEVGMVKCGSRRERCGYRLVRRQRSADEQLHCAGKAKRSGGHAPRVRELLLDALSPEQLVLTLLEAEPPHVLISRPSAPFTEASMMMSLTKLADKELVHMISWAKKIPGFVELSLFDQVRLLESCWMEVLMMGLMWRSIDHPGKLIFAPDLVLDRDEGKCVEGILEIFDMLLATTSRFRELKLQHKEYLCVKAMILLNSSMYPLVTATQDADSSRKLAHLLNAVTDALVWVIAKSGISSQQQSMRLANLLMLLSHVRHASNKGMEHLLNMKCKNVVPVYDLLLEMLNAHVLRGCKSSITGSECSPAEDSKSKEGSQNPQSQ

Cc1ccc(-c2nc3s/c(=C\c4ccco4)c(=O)n3n2)cc1
IC50 (Estrogen receptor beta [1]): > 50 µM (not active) | IC50 [2]: 22.6 µM (active) | IC50 (Protein Tat): > 100 µM (active) | IC50 (Estrogen receptor beta [3]): > 50 µM (not active)

CCC(CC)=N/N=C/c1c(O)n(CC)c2cc(C3=NNC(=O)CC3)ccc12
EC50 [4]: > 112 µM (not active) | EC50 [5]: < 0.3 µM (active) | EC50 [6]: 2.71 µM (active)

CN(c1ccccc1)c1ccc(/C=c2\s/c(=C(/C#N)C(=O)C(C)(C)C)n(Cc3ccco3)c2=O)cc1
IC50 (Heat shock protein HSP90): 13.4314 µM | AC50 (Cytochrome P450 3A4): 6.31 µM (inconclusive)

COc1ccccc1NC(=O)N1C[C@@H]2N[C@H](C1)[C@@H]2c1ccc(/C=C/c2ccccc2)cc1
AC50 [7]: 1.96 µM (active) | AC50 [8]: 9.74 µM (active) | AC50 [9]: 8.73 µM (active)

CCC(=O)N1CCC2(CC1)CN(C(C)=O)[C@@H](CO)c1[nH]c3cc(OC)ccc3c12
AC50 [10]: 20.1 µM (active)

COc1ccc(S(=O)(=O)N(C)C[C@@H]2OCc3ccccc3-c3c(n(C)c4ccccc34)C(=O)N([C@@H](C)CO)C[C@@H]2C)cc1
AC50 [11]: 0.126 µM (active) | AC50 [12]: 0.853 µM (active) | AC50 [13]: 0.115 µM (active) | AC50 [14]: 0.0794 µM (active) | AC50 [7]: 0.689 µM (active) | AC50 [15]: 84.3 µM (active)

Cc1cc(O)c(C(C)C)cc1Cl [CHLOROTHYMOL]
IC50 [16]: 14.1 µM (inactive) | IC50 [17]: 26.5 µM (inactive)
